T1: Uvi2 (Ustilago hordei, UniProt I2G262)
T1 sequence (I2G262 22-243): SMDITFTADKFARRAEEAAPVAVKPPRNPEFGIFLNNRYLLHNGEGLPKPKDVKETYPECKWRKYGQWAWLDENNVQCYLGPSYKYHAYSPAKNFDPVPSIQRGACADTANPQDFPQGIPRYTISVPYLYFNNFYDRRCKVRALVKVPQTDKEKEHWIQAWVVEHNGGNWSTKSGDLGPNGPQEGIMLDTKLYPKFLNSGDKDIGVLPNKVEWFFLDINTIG


Columns and labels:
Uvi2 = molecular target: T1, Uvi2; assay: microscale thermophoresis; assay type: binding; conditions: MST as for Cpl1
SEC-MALS = molecular target: the molecule itself; assay: SEC-MALS

Kd (Uvi2)	Molecule	stoichiometry N (SEC-MALS)
15 ± 3.72 µM	CC(=O)N[C@H]1[C@H](O[C@H]2[C@H](O)[C@@H](NC(C)=O)C(O)O[C@@H]2CO)O[C@H](CO)[C@@H](O)[C@@H]1O (some centres unmarked) [chitobiose]	
	Uvi2 (UHOR_02700 gene product), the Cpl1 homologue from Ustilago hordei, recombinant (natural protein) SMDITFTADKFARRAEEAAPVAVKPPRNPEFGIFLNNRYLLHNGEGLPKPKDVKETYPECKWRKYGQWAWLDENNVQCYLGPSYKYHAYSPAKNFDPVPSIQRGACADTANPQDFPQGIPRYTISVPYLYFNNFYDRRCKVRALVKVPQTDKEKEHWIQAWVVEHNGGNWSTKSGDLGPNGPQEGIMLDTKLYPKFLNSGDKDIGVLPNKVEWFFLDINTIG	2

From paper PMC10257043 (Molecular Plant Pathology, 2023)
